Tests used:
MINA53 = MINA53 (Homo sapiens, UniProt Q8IUF8); assay: 2-Oxoglutarate oxygenase assay panel, RapidFire MS assay; type: biochemical; conditions: read-out: pIC50 MINA53 (converted)
KDM5A-D = assay: Biochemical inhibition of the KDM5 sub-family in vitro
[1] = Liver microsomes stability; type: in vitro ADME; conditions: mouse liver microsomes
H3K4me3 in MM1S cells = assay: Quantitative ChIP-seq (ChIP-Rx spike-in) of H3K4me3; type: cell-based, human; conditions: 50 μM, 7 days, spike-in quantification
Method: Immediately prior to fixation in 1% formaldehyde, three million sf9 cells were added to each sample. Cells were fixed for 8 min at room temperature, lysed, and sonicated on a Bioruptor Pico for 3 repeats of 10 cycles of 30 s on/30 s off. The sonicated lysates were incubated for 1 hr at 4°C with pre-blocked protein A Sepharose beads, prior to overnight incubation with 1 μg of anti-H3K4me3 antibody (Millipore cat no. 07–473 lot no. 2207281). Pre-blocked Sepharose beads were added for 1 hr, the beads washed, and DNA was eluted followed by Proteinase K digestion. Libraries were constructed using the NebNext Ultra DAN Kit (NEB) and sequenced on an Illumina NextSeq 500 platform. Libraries were also generated for the input of each condition and sequenced in a similar manner.
Sequencing reads were aligned to the concatenated human/sf9 genome generated earlier using Bowtie (version 1.1.2), allowing only reads that matched uniquely to one location. The number of reads mapping to the human and sf9 genomes separately in each condition was calculated. The number of sf9 reads-per-million total aligned reads was calculated for each pull-down condition and corrected according to the percentage of sf9 reads in the corresponding input samples. A scaling factor for normalization was then calculated for each pull-down based on the reciprocal of the corrected sf9 reads per million for each sample. […]

A2A (h) = A2A (h) (Homo sapiens, UniProt P29274); assay: Cerep Express Panel, agonist radioligand; type: binding; conditions: read-out: % Inhibition of reference (10 µM)
Sequence of A2A (h) (P29274 whole entry): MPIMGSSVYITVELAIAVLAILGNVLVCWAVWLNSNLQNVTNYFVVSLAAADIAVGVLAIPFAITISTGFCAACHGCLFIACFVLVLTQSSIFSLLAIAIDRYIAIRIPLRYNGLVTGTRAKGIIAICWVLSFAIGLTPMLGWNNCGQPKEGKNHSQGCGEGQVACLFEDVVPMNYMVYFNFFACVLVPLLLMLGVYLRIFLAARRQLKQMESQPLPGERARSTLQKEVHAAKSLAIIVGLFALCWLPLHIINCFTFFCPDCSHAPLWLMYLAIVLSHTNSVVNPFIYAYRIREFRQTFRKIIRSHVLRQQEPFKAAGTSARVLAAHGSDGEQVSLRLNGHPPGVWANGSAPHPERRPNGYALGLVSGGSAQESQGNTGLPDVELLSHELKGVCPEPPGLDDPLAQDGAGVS

AT1 (h) = AT1 (h) (Homo sapiens, UniProt P30556); assay: Cerep Express Panel, antagonist radioligand; type: binding; conditions: read-out: % Inhibition of reference (10 µM)
Sequence of AT1 (h) (P30556 whole entry): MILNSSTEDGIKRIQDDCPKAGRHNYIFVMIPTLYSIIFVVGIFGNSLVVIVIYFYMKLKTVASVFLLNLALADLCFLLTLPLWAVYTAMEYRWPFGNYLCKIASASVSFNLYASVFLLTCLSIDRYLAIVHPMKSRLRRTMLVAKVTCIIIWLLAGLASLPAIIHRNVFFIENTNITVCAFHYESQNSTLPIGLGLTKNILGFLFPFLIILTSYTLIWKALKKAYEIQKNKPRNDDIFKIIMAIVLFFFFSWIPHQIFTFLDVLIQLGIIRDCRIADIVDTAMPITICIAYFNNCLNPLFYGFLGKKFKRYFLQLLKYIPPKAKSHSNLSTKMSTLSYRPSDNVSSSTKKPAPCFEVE

CB1 (h) = CB1 (h) (Homo sapiens, UniProt P21554); assay: Cerep Express Panel, agonist radioligand; type: binding; conditions: read-out: % Inhibition of reference (10 µM)
Sequence of CB1 (h) (P21554 whole entry): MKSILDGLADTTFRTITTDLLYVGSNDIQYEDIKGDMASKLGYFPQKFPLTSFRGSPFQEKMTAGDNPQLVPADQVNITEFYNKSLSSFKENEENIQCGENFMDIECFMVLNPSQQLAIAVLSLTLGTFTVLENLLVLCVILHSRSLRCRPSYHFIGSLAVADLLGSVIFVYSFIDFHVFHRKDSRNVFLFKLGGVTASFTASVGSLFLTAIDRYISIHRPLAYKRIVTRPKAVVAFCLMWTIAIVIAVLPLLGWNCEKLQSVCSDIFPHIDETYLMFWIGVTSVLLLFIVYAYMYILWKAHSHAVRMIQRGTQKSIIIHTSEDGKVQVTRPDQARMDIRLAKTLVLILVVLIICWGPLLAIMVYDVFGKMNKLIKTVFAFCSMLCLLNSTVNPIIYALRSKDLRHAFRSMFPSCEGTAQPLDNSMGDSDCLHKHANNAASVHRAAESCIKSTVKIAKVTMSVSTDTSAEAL

M1 (h) = M1 (h) (Homo sapiens, UniProt P11229); assay: Cerep Express Panel, antagonist radioligand; type: binding; conditions: read-out: % Inhibition of reference (10 µM)
Sequence of M1 (h) (P11229 whole entry): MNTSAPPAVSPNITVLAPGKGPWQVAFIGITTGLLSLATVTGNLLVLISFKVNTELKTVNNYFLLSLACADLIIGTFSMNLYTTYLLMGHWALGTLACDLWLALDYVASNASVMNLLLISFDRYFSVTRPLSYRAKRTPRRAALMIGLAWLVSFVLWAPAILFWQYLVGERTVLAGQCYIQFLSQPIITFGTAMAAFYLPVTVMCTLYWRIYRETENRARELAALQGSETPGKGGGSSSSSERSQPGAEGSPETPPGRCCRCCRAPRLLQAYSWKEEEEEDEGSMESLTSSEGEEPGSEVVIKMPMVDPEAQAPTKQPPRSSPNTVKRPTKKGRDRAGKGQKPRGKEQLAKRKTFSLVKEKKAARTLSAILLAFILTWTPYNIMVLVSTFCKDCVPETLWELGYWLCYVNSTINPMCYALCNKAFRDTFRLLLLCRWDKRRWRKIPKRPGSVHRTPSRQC

NK2 (h) = NK2 (h) (Homo sapiens, UniProt P21452); assay: Cerep Express Panel, agonist radioligand; type: binding; conditions: read-out: % Inhibition of reference (10 µM)
Sequence of NK2 (h) (P21452 whole entry): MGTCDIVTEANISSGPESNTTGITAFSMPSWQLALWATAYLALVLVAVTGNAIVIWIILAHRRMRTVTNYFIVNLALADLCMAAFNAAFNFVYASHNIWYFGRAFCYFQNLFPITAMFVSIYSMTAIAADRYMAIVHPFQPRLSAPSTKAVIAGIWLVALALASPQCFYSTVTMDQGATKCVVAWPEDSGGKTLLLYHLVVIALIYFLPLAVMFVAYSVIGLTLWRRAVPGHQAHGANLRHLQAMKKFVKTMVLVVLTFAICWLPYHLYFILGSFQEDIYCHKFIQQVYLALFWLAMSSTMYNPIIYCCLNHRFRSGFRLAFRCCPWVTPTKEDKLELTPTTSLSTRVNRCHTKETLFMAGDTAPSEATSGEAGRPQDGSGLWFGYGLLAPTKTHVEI

NK3 (h) = NK3 (h) (Homo sapiens, UniProt P29371); assay: Cerep Express Panel, antagonist radioligand; type: binding; conditions: read-out: % Inhibition of reference (10 µM)
Sequence of NK3 (h) (P29371 whole entry): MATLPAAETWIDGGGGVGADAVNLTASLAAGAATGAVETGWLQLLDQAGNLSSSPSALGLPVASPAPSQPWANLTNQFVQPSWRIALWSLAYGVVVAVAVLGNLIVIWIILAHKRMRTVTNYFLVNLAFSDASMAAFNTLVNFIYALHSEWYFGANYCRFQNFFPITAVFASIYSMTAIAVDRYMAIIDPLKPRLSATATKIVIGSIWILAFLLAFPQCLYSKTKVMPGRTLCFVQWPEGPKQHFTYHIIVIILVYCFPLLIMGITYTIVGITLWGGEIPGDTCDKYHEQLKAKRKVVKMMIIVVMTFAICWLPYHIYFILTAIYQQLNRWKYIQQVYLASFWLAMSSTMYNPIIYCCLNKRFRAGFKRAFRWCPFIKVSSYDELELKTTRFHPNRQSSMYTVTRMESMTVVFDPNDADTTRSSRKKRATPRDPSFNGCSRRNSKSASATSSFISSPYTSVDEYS

mu (MOP) (h) = mu (MOP) (h) (Homo sapiens, UniProt P35372); assay: Cerep Express Panel, agonist radioligand; type: binding; conditions: read-out: % Inhibition of reference (10 µM)
Sequence of mu (MOP) (h) (P35372 whole entry): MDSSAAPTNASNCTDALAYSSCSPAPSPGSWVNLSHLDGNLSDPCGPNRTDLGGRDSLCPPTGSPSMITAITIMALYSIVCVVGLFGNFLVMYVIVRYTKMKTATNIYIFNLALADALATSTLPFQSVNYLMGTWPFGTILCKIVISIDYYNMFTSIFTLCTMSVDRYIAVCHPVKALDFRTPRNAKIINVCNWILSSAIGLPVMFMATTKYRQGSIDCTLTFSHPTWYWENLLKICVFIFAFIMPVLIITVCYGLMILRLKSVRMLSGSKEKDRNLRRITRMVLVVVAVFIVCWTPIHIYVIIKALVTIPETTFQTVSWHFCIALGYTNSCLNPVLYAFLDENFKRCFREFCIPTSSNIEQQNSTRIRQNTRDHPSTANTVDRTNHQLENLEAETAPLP

Sequence of MINA53 (Q8IUF8 whole entry, species assumed): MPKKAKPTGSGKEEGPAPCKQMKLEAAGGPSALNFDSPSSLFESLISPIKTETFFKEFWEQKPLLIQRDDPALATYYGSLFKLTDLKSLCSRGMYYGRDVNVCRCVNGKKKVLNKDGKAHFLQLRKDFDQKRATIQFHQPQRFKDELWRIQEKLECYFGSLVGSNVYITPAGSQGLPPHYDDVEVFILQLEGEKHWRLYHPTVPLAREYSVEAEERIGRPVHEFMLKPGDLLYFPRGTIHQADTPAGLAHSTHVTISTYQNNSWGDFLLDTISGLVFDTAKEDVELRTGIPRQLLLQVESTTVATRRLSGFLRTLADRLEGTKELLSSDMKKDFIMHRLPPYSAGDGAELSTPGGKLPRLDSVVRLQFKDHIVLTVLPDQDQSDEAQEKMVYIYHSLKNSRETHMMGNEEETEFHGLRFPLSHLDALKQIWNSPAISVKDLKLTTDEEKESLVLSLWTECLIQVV

Question: Which results are given for `CCN(CCN(C)C)C(=O)CNCc1cc(C(N)=O)ccn1` [KDOAM-25]?
Answer: IC50 (MINA53): > 100 µM; IC50 (KDM5A-D): < 0.1 µM; intrinsic clearance, in words [1]: low intrinsic clearance; microsomal CLint ([1]; read-out: MLM Clint): 8.42 µL/min/mg; H3K4me3 level compared with the vehicle control (H3K4me3 in MM1S cells): approximately twice; inhibition at 10 µM (A2A (h)): -2%; inhibition at 10 µM (AT1 (h)): -7%; inhibition at 10 µM (CB1 (h)): -1%; inhibition at 10 µM (M1 (h)): -18%; inhibition at 10 µM (NK2 (h)): 3%; inhibition at 10 µM (NK3 (h)): -8%; inhibition at 10 µM (mu (MOP) (h)): -2%
